Reference: patent publication US8686150B2 (Sanofi, priority 2011, dated 2014)

biological target: T1, human full-length recombinant PKC βII (Homo sapiens, UniProt P05771); test: Determination of PKC βII inhibition (Caliper mobility-shift kinase assay, Fluorescein-RFARKGSLRQKNV peptide substrate); format: biochemical; conditions: example compounds at a final concentration of 1.14 μM (±0.15 μM)
T1 construct: Active human full-length recombinant PKC βII; purchased Invitrogen GmbH, Darmstadt, Germany
Method in brief: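 Full-length PKC βII (30 ng/ml in pre-dilution) with PS/DAG/Ca2+ activators, pH 7.4; fluorescein peptide and ATP at 3 μM and 120 μM before mixing. Reaction ran 60 min at 32 °C, was EDTA-stopped, and was read by mobility shift. % inhibition came from product/(substrate+product) peak heights, tested at 1.14 μM final.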

T1 sequence (P05771 1-673 isoform P05771-2): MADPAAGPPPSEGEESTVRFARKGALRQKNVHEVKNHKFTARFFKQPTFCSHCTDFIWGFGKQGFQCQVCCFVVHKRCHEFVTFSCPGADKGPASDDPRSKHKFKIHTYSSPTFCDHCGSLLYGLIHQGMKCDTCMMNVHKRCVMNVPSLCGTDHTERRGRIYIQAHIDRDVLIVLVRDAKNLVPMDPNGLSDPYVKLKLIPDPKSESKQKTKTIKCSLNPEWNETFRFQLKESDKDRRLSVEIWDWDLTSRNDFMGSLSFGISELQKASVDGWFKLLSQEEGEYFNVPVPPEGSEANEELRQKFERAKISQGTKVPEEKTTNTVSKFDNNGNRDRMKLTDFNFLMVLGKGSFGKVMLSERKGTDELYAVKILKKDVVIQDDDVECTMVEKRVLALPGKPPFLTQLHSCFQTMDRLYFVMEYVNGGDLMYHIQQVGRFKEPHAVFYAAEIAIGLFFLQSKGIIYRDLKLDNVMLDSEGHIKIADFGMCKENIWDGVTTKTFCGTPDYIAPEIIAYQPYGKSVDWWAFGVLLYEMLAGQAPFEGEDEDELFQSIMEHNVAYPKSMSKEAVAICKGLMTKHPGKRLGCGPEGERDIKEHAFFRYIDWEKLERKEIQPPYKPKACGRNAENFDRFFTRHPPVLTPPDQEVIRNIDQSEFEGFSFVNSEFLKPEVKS

Structure (SMILES) | inhibition at 1.14 µM
Cc1n[nH]c2nc(-c3ccc(O)c(F)c3)cc(C(=O)N3CCC(N)C3)c12 (stereo not shown) [Example 336, (3-Amino-pyrrolidin-1-yl)-[6-(3-fluoro-4-hydroxy-phenyl)-3-methyl-1H-pyrazolo[3,4-b]pyridin-4-yl]-methanone] | 73%
Cc1n[nH]c2nc(-c3ccc(O)c(F)c3)cc(C(=O)N3CCN[C@H](C)C3)c12 [Example 337, [6-(3-Fluoro-4-hydroxy-phenyl)-3-methyl-1H-pyrazolo[3,4-b]pyridin-4-yl]-((R)-3-methyl-piperazin-1-yl)-methanone] | 93%
Cc1n[nH]c2nc(-c3ccc(O)c(F)c3)cc(C(=O)NC3CCC(N)CC3)c12 (stereo not shown) [Example 338, 6-(3-Fluoro-4-hydroxy-phenyl)-3-methyl-1H-pyrazolo[3,4-b]pyridine-4-carboxylic acid (4-amino-cyclohexyl)-amide] | 68%
Cc1n[nH]c2nc(-c3ccc(O)c(F)c3)cc(C(=O)N3CC4(CCNCC4)C3)c12 [Example 339, (2,7-Diaza-spiro[3.5]non-2-yl)-[6-(3-fluoro-4-hydroxy-phenyl)-3-methyl-1H-pyrazolo[3,4-b]pyridin-4-yl]-methanone] | 73%
Cc1n[nH]c2nc(-c3ccc(O)c(F)c3)cc(C(=O)N3CCC4(CCNC4)C3)c12 (stereo not shown) [Example 340, (2,7-Diaza-spiro[4.4]non-2-yl)-[6-(3-fluoro-4-hydroxy-phenyl)-3-methyl-1H-pyrazolo[3,4-b]pyridin-4-yl]-methanone] | 67%
Cc1n[nH]c2nc(-c3ccc(O)c(F)c3)cc(C(=O)N3CCC4(CCNC4)CC3)c12 [Example 341, (2,8-Diaza-spiro[4.5]dec-8-yl)-[6-(3-fluoro-4-hydroxy-phenyl)-3-methyl-1H-pyrazolo[3,4-b]pyridin-4-yl]-methanone] | 53%
Cc1n[nH]c2nc(-c3ccc(O)c(F)c3)cc(C(=O)N3CCC4(CC3)CNCCO4)c12 [Example 342, [6-(3-Fluoro-4-hydroxy-phenyl)-3-methyl-1H-pyrazolo[3,4-b]pyridin-4-yl]-(1-oxa-4,9-diaza-spiro[5.5]undec-9-yl)-methanone] | 60%
Cc1n[nH]c2nc(-c3ccc(O)c(F)c3)cc(C(=O)N3CCC4(CCNCC4)C3)c12 [Example 343, (2,8-Diaza-spiro[4.5]dec-2-yl)-[6-(3-fluoro-4-hydroxy-phenyl)-3-methyl-1H-pyrazolo[3,4-b]pyridin-4-yl]-methanone] | 49%
Cc1n[nH]c2nc(-c3ccc(O)c(F)c3)cc(C(=O)N3CCOC4(CCNCC4)C3)c12 [Example 344, [6-(3-Fluoro-4-hydroxy-phenyl)-3-methyl-1H-pyrazolo[3,4-b]pyridin-4-yl]-(1-oxa-4,9-diaza-spiro[5.5]undec-4-yl)-methanone] | 64%
Cc1n[nH]c2nc(-c3ccc(O)c(F)c3)cc(C(=O)N3CCCC4(CNCCO4)C3)c12 (stereo not shown) [Example 345, [6-(3-Fluoro-4-hydroxy-phenyl)-3-methyl-1H-pyrazolo[3,4-b]pyridin-4-yl]-(1-oxa-4,8-diaza-spiro[5.5]undec-8-yl)-methanone] | 58%
Cc1n[nH]c2nc(-c3ccc(O)c(F)c3)cc(C(=O)N3CCCC4(CCNC4)C3)c12 (stereo not shown) [Example 346, (2,7-Diaza-spiro[4.5]dec-7-yl)-[6-(3-fluoro-4-hydroxy-phenyl)-3-methyl-1H-pyrazolo[3,4-b]pyridin-4-yl]-methanone] | 59%
Cc1n[nH]c2nc(-c3ccc(O)c(F)c3)cc(C(=O)N3CC[C@@H](N(C)C)C3)c12 [Example 347, ((R)-3-Dimethylamino-pyrrolidin-1-yl)-[6-(3-fluoro-4-hydroxy-phenyl)-3-methyl-1H-pyrazolo[3,4-b]pyridin-4-yl]-methanone] | 35%
Cc1n[nH]c2nc(-c3ccc(O)c(F)c3)cc(C(=O)N3CC[C@H](N(C)C)C3)c12 [Example 348, ((S)-3-Dimethylamino-pyrrolidin-1-yl)-[6-(3-fluoro-4-hydroxy-phenyl)-3-methyl-1H-pyrazolo[3,4-b]pyridin-4-yl]-methanone] | 44%
Cc1n[nH]c2nc(-c3ccc(O)c(F)c3)cc(C(=O)NC3CCCNC3)c12 (stereo not shown) [Example 349, 6-(3-Fluoro-4-hydroxy-phenyl)-3-methyl-1H-pyrazolo[3,4-b]pyridine-4-carboxylic acid piperidin-3-ylamide] | 81%
Cc1n[nH]c2nc(-c3ccc(O)c(F)c3)cc(C(=O)NC3CC4CC3CN4)c12 (stereo not shown) [Example 350, 6-(3-Fluoro-4-hydroxy-phenyl)-3-methyl-1H-pyrazolo[3,4-b]pyridine-4-carboxylic acid (2-aza-bicyclo[2.2.1]hept-5-yl)-amide] | 77%

Second part, the compound after the results:

inhibition at 1.14 µM | Structure (SMILES)
88% | Cc1n[nH]c2nc(-c3ccc(O)c(F)c3)cc(C(=O)N3CCN[C@@H](CC(C)C)C3)c12 [Example 351, [6-(3-Fluoro-4-hydroxy-phenyl)-3-methyl-1H-pyrazolo[3,4-b]pyridin-4-yl]-((S)-3-isobutyl-piperazin-1-yl)-methanone]
84% | Cc1n[nH]c2nc(-c3ccc(O)c(F)c3)cc(C(=O)N3CCNC(C)C3C)c12 (stereo not shown) [Example 352, (2,3-Dimethyl-piperazin-1-yl)-[6-(3-fluoro-4-hydroxy-phenyl)-3-methyl-1H-pyrazolo[3,4-b]pyridin-4-yl]-methanone]
70% | COC(=O)CC1CNCCN1C(=O)c1cc(-c2ccc(O)c(F)c2)nc2[nH]nc(C)c12 (stereo not shown) [Example 353, {1-[6-(3-Fluoro-4-hydroxy-phenyl)-3-methyl-1H-pyrazolo[3,4-b]pyridine-4-carbonyl]-piperazin-2-yl}-acetic acid methyl ester]
52% | Cc1n[nH]c2nc(-c3ccc(O)c(F)c3)cc(C(=O)NCC3CCNC3)c12 (stereo not shown) [Example 354, 6-(3-Fluoro-4-hydroxy-phenyl)-3-methyl-1H-pyrazolo[3,4-b]pyridine-4-carboxylic acid (pyrrolidin-3-ylmethyl)-amide]
60% | Cc1n[nH]c2nc(-c3ccc(O)c(F)c3)cc(C(=O)NC3CCCN(C)C3)c12 (stereo not shown) [Example 355, 6-(3-Fluoro-4-hydroxy-phenyl)-3-methyl-1H-pyrazolo[3,4-b]pyridine-4-carboxylic acid (1-methyl-piperidin-3-yl)-amide]
31% | CC(=O)N1CCN(C(=O)c2cc(-c3ccc(O)c(F)c3)nc3[nH]nc(C)c23)CC1 [Example 356, 1-{4-[6-(3-Fluoro-4-hydroxy-phenyl)-3-methyl-1H-pyrazolo[3,4-b]pyridine-4-carbonyl]-piperazin-1-yl}-ethanone]
21% | CC(=O)N1CCC(NC(=O)c2cc(-c3ccc(O)c(F)c3)nc3[nH]nc(C)c23)CC1 [Example 357, 6-(3-Fluoro-4-hydroxy-phenyl)-3-methyl-1H-pyrazolo[3,4-b]pyridine-4-carboxylic acid (1-acetyl-piperidin-4-yl)-amide]
28% | CCN1CC2CC1CN2C(=O)c1cc(-c2ccc(O)c(F)c2)nc2[nH]nc(C)c12 (stereo not shown) [Example 358, (5-Ethyl-2,5-diaza-bicyclo[2.2.1]hept-2-yl)-[6-(3-fluoro-4-hydroxy-phenyl)-3-methyl-1H-pyrazolo[3,4-b]pyridin-4-yl]-methanone]
36% | Cc1n[nH]c2nc(-c3ccc(O)c(F)c3)cc(C(=O)NCC3CCC(=O)N3)c12 (stereo not shown) [Example 359, 6-(3-Fluoro-4-hydroxy-phenyl)-3-methyl-1H-pyrazolo[3,4-b]pyridine-4-carboxylic acid (5-oxo-pyrrolidin-2-ylmethyl)-amide]
52% | Cc1n[nH]c2nc(-c3ccc(O)c(F)c3)cc(C(=O)NC3CCN(C4CCCCC4)CC3)c12 [Example 360, 6-(3-Fluoro-4-hydroxy-phenyl)-3-methyl-1H-pyrazolo[3,4-b]pyridine-4-carboxylic acid (1-cyclohexyl-piperidin-4-yl)-amide]
80% | Cc1n[nH]c2nc(-c3ccc(O)c(F)c3)cc(C(=O)NCC(C)(C)N3CCN(C)CC3)c12 [Example 362, 6-(3-Fluoro-4-hydroxy-phenyl)-3-methyl-1H-pyrazolo[3,4-b]pyridine-4-carboxylic acid [2-methyl-2-(4-methyl-piperazin-1-yl)-propyl]-amide]
72% | Cc1n[nH]c2nc(-c3ccc(O)c(F)c3)cc(C(=O)NCC(C)(C)CN)c12 [Example 363, 6-(3-Fluoro-4-hydroxy-phenyl)-3-methyl-1H-pyrazolo[3,4-b]pyridine-4-carboxylic acid (3-amino-2,2-dimethyl-propyl)-amide]
38% | Cc1n[nH]c2nc(-c3ccc(O)c(F)c3)cc(C(=O)NC3CC(C)(C)N(C)C(C)(C)C3)c12 [Example 364, 6-(3-Fluoro-4-hydroxy-phenyl)-3-methyl-1H-pyrazolo[3,4-b]pyridine-4-carboxylic acid (1,2,2,6,6-pentamethyl-piperidin-4-yl)-amide]
41% | Cc1n[nH]c2nc(-c3ccc(O)c(F)c3)cc(C(=O)N3CCCN(C)CC3)c12 [Example 365, [6-(3-Fluoro-4-hydroxy-phenyl)-3-methyl-1H-pyrazolo[3,4-b]pyridin-4-yl]-(4-methyl-[1,4]diazepan-1-yl)-methanone]
47% | CCN1CCCN(C(=O)c2cc(-c3ccc(O)c(F)c3)nc3[nH]nc(C)c23)CC1 [Example 366, (4-Ethyl-[1,4]diazepan-1-yl)-[6-(3-fluoro-4-hydroxy-phenyl)-3-methyl-1H-pyrazolo[3,4-b]pyridin-4-yl]-methanone]
36% | Cc1n[nH]c2nc(-c3ccc(O)c(F)c3)cc(C(=O)NCC3CCCCN3)c12 (stereo not shown) [Example 367, 6-(3-Fluoro-4-hydroxy-phenyl)-3-methyl-1H-pyrazolo[3,4-b]pyridine-4-carboxylic acid (piperidin-2-ylmethyl)-amide]
